This is an account of results in US20240238363A1 (priority 2020, published 2024).

Assay [1] has as its target CXCR4 (Mus musculus, UniProt P70658). To be noted: FIG. 2A; CXCR4 tropic gp120; cultured mouse hippocampal neurons. Here is the method:
(§1) Aβd/t was isolated from medium of cultured 7PA2 cells, a CHO cell line expressing a form of human APP found in Familial AD. The amount of ABd/t is quantified by Western blot with standards of synthetic Aβ monomer. Neuronal cultures, fixation, permeabilization, blocking and immunostaining is performed starting with E16.5 mouse hippocampal neurons by common methods in broad use.
(§2) Images of fixed neurons immunostained for cofilin, growth cones and nuclei captured across the entire coverslip are exported to ImageJ. Macro functions are applied to set local threshold and shape/size segmentation for both the cofilin and growth cone antibodies. Cofilin stained material that is not within neurites is eliminated. Results are reported as rods/nucleus, number of rods per area, rods as percent of total area, or, if NeuN stained or identified morphologically, rods per neuron.

Assay [2] deals with CXCR4. Particulars: in vivo; cited from earlier work.
In assay [3] the test system is dendritic spine morphology, dendritic arborization and functional deficits. Particulars: animal model of HIV cognitive decline; cited from earlier work.
The test system of assay [4] is cognitive deficits in HAND. Particulars: phase 2 human trials and brain scans; cited from earlier work.
The test system of assay [5] is cofilin rods in cultured mouse hippocampal neurons. The format is cell-based. The procedure: as §1, §2
(§3) Amyloid beta (Aβ) trimer was added to pure cultures of mouse hippocampal neurons, devoid of immune cells, microglia, and their secreted inflammatory mediators to evaluate actin dynamics and cofilin-rod formation. […] The relevance is that rod pathology leads to synapse loss in people that correlates with dementia.

Assay [6] relates to growth cones in pure cultures of mouse hippocampal neurons. To be noted: FIG. 5; Aβ trimer-treated neurons, 2G13 antibody stain. The procedure: as §1, §2, §3
The target of assay [7] is T1, CCR5 (Mus musculus, UniProt P51682). To be noted: FIG. 2A; CCR5 tropic gp120; cultured mouse hippocampal neurons. Here is the method: as §1, §2
Assay [8] deals with T1, CCR5. To be noted: pharmacologic blockade of CCR5; cited from earlier work.

T1 sequence (P51682 whole entry): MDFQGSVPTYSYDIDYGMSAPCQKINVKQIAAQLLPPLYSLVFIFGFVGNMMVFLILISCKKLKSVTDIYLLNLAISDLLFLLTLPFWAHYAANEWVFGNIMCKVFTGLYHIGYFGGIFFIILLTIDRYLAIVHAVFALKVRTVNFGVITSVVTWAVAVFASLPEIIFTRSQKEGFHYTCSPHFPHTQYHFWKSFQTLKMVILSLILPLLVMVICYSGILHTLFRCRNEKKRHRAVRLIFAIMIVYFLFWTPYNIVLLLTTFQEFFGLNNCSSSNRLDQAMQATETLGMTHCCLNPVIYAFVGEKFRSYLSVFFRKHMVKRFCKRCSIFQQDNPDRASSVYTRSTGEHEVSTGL
CXCR4 (Mus musculus, UniProt P70658), sequence (P70658 whole entry): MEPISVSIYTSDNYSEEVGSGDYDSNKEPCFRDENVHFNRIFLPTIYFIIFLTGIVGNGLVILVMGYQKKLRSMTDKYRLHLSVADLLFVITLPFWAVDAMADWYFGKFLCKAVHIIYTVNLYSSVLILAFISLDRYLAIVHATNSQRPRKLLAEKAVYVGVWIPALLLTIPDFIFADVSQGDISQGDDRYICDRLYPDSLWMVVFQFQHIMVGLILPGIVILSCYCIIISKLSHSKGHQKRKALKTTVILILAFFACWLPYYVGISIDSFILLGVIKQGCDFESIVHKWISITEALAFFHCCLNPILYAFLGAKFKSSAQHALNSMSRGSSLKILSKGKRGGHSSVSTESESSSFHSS

Turning to `c1cc(CN2CCCNCCNCCCNCC2)ccc1CN1CCCNCCNCCCNCC1` [AMD3100], the “inhibition of gp120-induced cofilin-rod formation through CXCR4” value against CXCR4 [1] is reported as “inhibited”. The “recovery after traumatic brain injury” value in the assay with CXCR4 [2] is reported as “improved recovery”.
Dala1-peptide T-amide [DAPTA]: in assay [3], the “dendritic spine morphology, dendritic arborization and functional deficits” value is “protection of dendritic spine morphology, expansion of dendritic arborization and reversal of functional deficits”. The “cognitive deficits in HAND” value in assay [4] was “able to reverse cognitive deficits”.
In the case of all-D-ASTTTNYT [RAP-310], in assay [5], the “block Aβ-induced formation of cofilin rods (percent of neurons expressing cofilin-rods)” value is “block” and the “block TNF-induced formation of cofilin rods” value was “block”.
As to all-D-TTNYT [RAP-103], in assay [5], the “area within the neurons occupied by cofilin-rods, caused by amyloid beta (Aβ)” value is on record as “reducing”; the “area within the neurons occupied by cofilin-rods, caused by pre-formed fibrils (PPF) of alpha-synuclein” value is “reducing”; the “block Aβ-induced formation of cofilin rods (percent of neurons expressing cofilin-rods)” value is reported as “block”; the “block TNF-induced formation of cofilin rods” value is given as “block”. Moreover, in assay [5], the “cofilin rod-like structures at the ends of dendrites” value was “eliminated”. In addition, the growth cone formation result in assay [6] is “promote growth cone formation”.
maraviroc: the “inhibition of gp120-induced cofilin-rod formation through CCR5” value on CCR5 [7] was “inhibited”. Besides, the “early pathology of synapse loss (cofilin-rod formation) induced by beta-amyloid (Aβ-trimer/dimer)” value in assay [5] (FIG. 2B, blocking neuronal CCR5) is given as “can be reversed”. The “dendritic spines and neurite cortical projections after stroke and traumatic brain injury” value on CCR5 [8] was “preservation of dendritic spines and new patterns of neurite cortical projections”.
